Assay results taken from US12692269B2, “Therapeutic compounds” (Genentech, Inc., priority 2019, dated 2026).

How the values were obtained:
Assay type in all cases: binding
TEAD4 YAP50-100 = TEAD4 YAP50-100 (Homo sapiens, UniProt Q15561); assay: TEAD4-YAP HTRF (TR-FRET) protein-protein interaction assay; settings: TEAD4, YAP peptide 50-100, HTRF; for EC50: read-out: TEAD4 YAP50-100 HTRF combined: EC50
Protocol: (§1) Purified His-tagged TEAD protein (YAP Binding Domain, amino acids 217-447) is pre-incubated with Europium labelled anti-His antibody tracer (Perkin Elmer Cat #AD0110). Small molecule Inhibitors are then incubated with the TEAD-Eu protein complex for 30 minutes to allow for binding to TEAD protein. Biotinylated YAP peptide for TEAD-YAP assays (AA's 50-100) or biotinylated TAZ peptide for TEAD-TAZ assays (AA's 13-57) that has been pre-incubated with streptavidin-xl665 acceptor (CIS-Bio Cat #610SAXAC) or is added to the compound-TEAD mix. The TEAD-YAP-inhibitor mixture is then incubated for 60 minutes at room temperature. All reactions are carried out in a polystyrene plate. After 60 minutes, the plate is read on a plate reader using TR-FRET mode with wavelengths of 665 nm/615 nm. If YAP or TAZ binds to TEAD as expected, a TR-FRET signal results from the proximity of YAP or TAZ and TEAD after binding. If an inhibitor such as peptide 17 (Selleckchem Cat #58164) interferes with YAP-TEAD or TAZ-TEAD binding, the disruption of the YAP or TAZ:TEAD interaction results in a decrease in TR-FRET signal. The potency of compounds as YAP:TEAD or TAZ:TEAD protein-protein interaction (PPi) inhibitors is determined by an IC50 or EC50 value generated using a non-linear four parameter curve fit.

[1] = biological target: TEAD4 TAZ (amino acids 13-57) (Homo sapiens, UniProt Q15561); assay: TEAD4-TAZ HTRF (TR-FRET) protein-protein interaction assay; settings: for TEAD4 TAZ HTRF combined: Max % Inhibition: TEAD4, TAZ peptide; for EC50: TEAD4-TAZ HTRF, TR-FRET 665 nm/615 nm, read-out: TEAD4 TAZ HTRF combined: EC50
Protocol: as §1

[2] = biological target: TEAD3 TAZ (amino acids 13-57) (Homo sapiens, UniProt Q99594); assay: TEAD3-TAZ HTRF (TR-FRET) protein-protein interaction assay; settings: for TEAD3 TAZ HTRF combined: Max % Inhibition: TEAD3, TAZ peptide; for EC50: TEAD3-TAZ HTRF, TR-FRET 665 nm/615 nm, read-out: TEAD3 TAZ HTRF combined: EC50
Protocol: as §1

TEAD3 YAP50-100 = TEAD3 YAP50-100 (Homo sapiens, UniProt Q99594); assay: TEAD3-YAP HTRF (TR-FRET) protein-protein interaction assay; settings: TEAD3, YAP peptide 50-100, HTRF; for EC50: read-out: TEAD3 YAP50-100 HTRF combined: EC50
Protocol: as §1

[3] = biological target: TEAD2 TAZ (amino acids 13-57) (Homo sapiens, UniProt Q15562); assay: TEAD2-TAZ HTRF (TR-FRET) protein-protein interaction assay; settings: for TEAD2 TAZ HTRF combined: Max % Inhibition: TEAD2, TAZ peptide; for EC50: TEAD2-TAZ HTRF, TR-FRET 665 nm/615 nm, read-out: TEAD2 TAZ HTRF combined: EC50
Protocol: as §1

TEAD1 YAP50-100 = TEAD1 YAP50-100 (Homo sapiens, UniProt P28347); assay: TEAD1-YAP HTRF (TR-FRET) protein-protein interaction assay; settings: TEAD1, YAP peptide 50-100, HTRF; for EC50: read-out: TEAD1 YAP50-100 HTRF combined: EC50
Protocol: as §1

TEAD2 YAP50-100 = TEAD2 YAP50-100 (Homo sapiens, UniProt Q15562); assay: TEAD2-YAP HTRF (TR-FRET) protein-protein interaction assay; settings: TEAD2, YAP peptide 50-100, HTRF; for EC50: read-out: TEAD2 YAP50-100 HTRF combined: EC50
Protocol: as §1

[4] = biological target: TEAD1 TAZ (amino acids 13-57) (Homo sapiens, UniProt P28347); assay: TEAD1-TAZ HTRF (TR-FRET) protein-protein interaction assay; settings: for TEAD1 TAZ HTRF combined: Max % Inhibition: TEAD1, TAZ peptide; for EC50: TEAD1-TAZ HTRF, TR-FRET 665 nm/615 nm, read-out: TEAD1 TAZ HTRF combined: EC50
Protocol: as §1

Sequence of TEAD3 TAZ (amino acids 13-57) (Q99594 173-435 limits assumed): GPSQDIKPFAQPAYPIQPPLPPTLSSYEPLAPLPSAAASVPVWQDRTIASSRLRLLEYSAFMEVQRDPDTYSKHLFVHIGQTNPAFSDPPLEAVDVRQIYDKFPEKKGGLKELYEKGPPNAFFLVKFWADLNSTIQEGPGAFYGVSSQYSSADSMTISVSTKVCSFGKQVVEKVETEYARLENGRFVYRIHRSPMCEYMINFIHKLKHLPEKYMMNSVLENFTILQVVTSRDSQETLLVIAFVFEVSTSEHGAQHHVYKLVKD
Sequence of TEAD3 YAP50-100 (Q99594 173-435 limits assumed): as above
Sequence of TEAD1 TAZ (amino acids 13-57) (P28347 167-426 limits assumed): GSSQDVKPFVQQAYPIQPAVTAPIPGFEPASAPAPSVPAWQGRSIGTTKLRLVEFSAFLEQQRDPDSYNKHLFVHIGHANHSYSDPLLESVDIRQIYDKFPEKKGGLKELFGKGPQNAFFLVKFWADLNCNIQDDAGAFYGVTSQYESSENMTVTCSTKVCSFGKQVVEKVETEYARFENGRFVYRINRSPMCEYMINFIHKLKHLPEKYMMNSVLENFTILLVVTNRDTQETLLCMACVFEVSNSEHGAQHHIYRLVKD
Sequence of TEAD1 YAP50-100 (P28347 167-426 limits assumed): as above
Sequence of TEAD4 TAZ (amino acids 13-57) (Q15561 217-434 limits assumed): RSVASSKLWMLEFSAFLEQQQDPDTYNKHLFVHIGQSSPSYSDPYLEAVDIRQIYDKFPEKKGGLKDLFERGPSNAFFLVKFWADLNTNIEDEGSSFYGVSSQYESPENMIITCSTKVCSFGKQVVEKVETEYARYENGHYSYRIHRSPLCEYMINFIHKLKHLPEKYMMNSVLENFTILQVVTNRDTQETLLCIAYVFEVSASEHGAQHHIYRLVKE
Sequence of TEAD4 YAP50-100 (Q15561 217-434 limits assumed): as above
Sequence of TEAD2 TAZ (amino acids 13-57) (Q15562 217-447): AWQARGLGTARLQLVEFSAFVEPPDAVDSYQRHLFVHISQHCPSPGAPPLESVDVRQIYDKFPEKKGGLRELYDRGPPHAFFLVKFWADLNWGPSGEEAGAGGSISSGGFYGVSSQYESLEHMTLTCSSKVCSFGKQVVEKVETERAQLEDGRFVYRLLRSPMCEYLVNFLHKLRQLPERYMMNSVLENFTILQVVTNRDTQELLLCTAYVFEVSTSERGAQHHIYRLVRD
Sequence of TEAD2 YAP50-100 (Q15562 217-447): as above

SMILES	TEAD4 YAP50-100 HTRF combined: Max % Inhibition (TEAD4 YAP50-100)	EC50 (TEAD4 YAP50-100)	TEAD4 TAZ HTRF combined: Max % Inhibition [1]	EC50 [1]	TEAD3 TAZ HTRF combined: Max % Inhibition [2]	EC50 [2]	TEAD3 YAP50-100 HTRF combined: Max % Inhibition (TEAD3 YAP50-100)	EC50 (TEAD3 YAP50-100)	TEAD2 TAZ HTRF combined: Max % Inhibition [3]	EC50 [3]	TEAD1 YAP50-100 HTRF combined: Max % Inhibition (TEAD1 YAP50-100)	EC50 (TEAD1 YAP50-100)	TEAD2 YAP50-100 HTRF combined: Max % Inhibition (TEAD2 YAP50-100)	EC50 (TEAD2 YAP50-100)	TEAD1 TAZ HTRF combined: Max % Inhibition [4]	EC50 [4]
O=C(c1c(C2CNCCO2)nn2c(=O)cc(-c3ccc(C4CCCCC4)cc3)[nH]c12)N1CC(CF)C1 (single isomer, unassigned) [Enantiomer A, Example 63, 5-(4-Cyclohexylphenyl)-3-[3-(fluoromethyl)azetidine-1-carbonyl]-2-morpholin-2-yl-4H-pyrazolo[1,5-a]pyrimidin-7-one]	40.0%	1600 nM	30.5%	1550 nM	55.5%	200 nM	62.0%	180 nM	66.0%	40 nM	66.0%	140 nM	66.0%	40 nM	55.5%	130 nM
CC1CCN1C(=O)c1nn2c(=O)cc(-c3ccc(C4CCCCC4)cc3)[nH]c2c1C(=O)N1CC(CF)C1 (single isomer, unassigned) [Enantiomer B, Example 33, 5-(4-Cyclohexylphenyl)-3-(3-(fluoromethyl)azetidine-1-carbonyl)-2-(2-methylazetidine-1-carbonyl)pyrazolo[1,5-a]pyrimidin-7(4H)-one]	49.0%	670 nM	37.5%	570 nM	58.5%	200 nM	69.0%	150 nM	68.0%	20 nM	72.0%	80 nM	72.0%	20 nM	64.0%	100 nM
O=C(c1c(C2CNCCO2)nn2c(=O)cc(-c3ccc(C4CCCCC4)cc3)[nH]c12)N1CC(CF)C1 (single isomer, unassigned) [Enantiomer B, Example 63, 5-(4-Cyclohexylphenyl)-3-[3-(fluoromethyl)azetidine-1-carbonyl]-2-morpholin-2-yl-4H-pyrazolo[1,5-a]pyrimidin-7-one]	35.0%	1090 nM	28.0%	590 nM	52.0%	160 nM	59.5%	150 nM	65.0%	30 nM	62.0%	90 nM	62.5%	40 nM	52.0%	140 nM
Cc1nccnc1-c1nn2c(=O)cc(-c3ccc(OC(c4ccccc4)C(F)(F)F)cc3)[nH]c2c1C(=O)N1C[C@H](CF)[C@@H]1C (single isomer, unassigned) [Final product obtained using Enantiomer A from Step 1, Example 56]	69.5%	2700 nM	67.0%	2250 nM	74.5%	430 nM	81.5%	370 nM	89.0%	60 nM	74.0%	370 nM	92.0%	60 nM	63.0%	320 nM

Molecules with a lower EC50 (TEAD4 YAP50-100), results first:

TEAD4 YAP50-100 HTRF combined: Max % Inhibition (TEAD4 YAP50-100)	EC50 (TEAD4 YAP50-100)	TEAD4 TAZ HTRF combined: Max % Inhibition [1]	EC50 [1]	TEAD3 TAZ HTRF combined: Max % Inhibition [2]	EC50 [2]	TEAD3 YAP50-100 HTRF combined: Max % Inhibition (TEAD3 YAP50-100)	EC50 (TEAD3 YAP50-100)	TEAD2 TAZ HTRF combined: Max % Inhibition [3]	EC50 [3]	TEAD1 YAP50-100 HTRF combined: Max % Inhibition (TEAD1 YAP50-100)	EC50 (TEAD1 YAP50-100)	TEAD2 YAP50-100 HTRF combined: Max % Inhibition (TEAD2 YAP50-100)	EC50 (TEAD2 YAP50-100)	TEAD1 TAZ HTRF combined: Max % Inhibition [4]	EC50 [4]	SMILES
58.5%	100 nM	56.0%	80 nM	59.5%	160 nM	69.5%	150 nM	68.5%	20 nM	74.0%	120 nM	67.0%	20 nM	65.5%	110 nM	Cc1nccnc1-c1nn2c(=O)cc(-c3ccc(CC(C)(C)C)cc3)[nH]c2c1C(=O)N1C[C@H](CF)[C@@H]1C (racemic) [Compound 73, 5-[4-(2,2-dimethylpropyl)phenyl]-2-(3-methylpyrazin-2-yl)-3-[rac-(2S,3S)-3-(fluoromethyl)-2-methyl-azetidine-1-carbonyl]-4H-pyrazolo[1,5-a]pyrimidin-7-one]
48.5%	460 nM	41.5%	410 nM	58.5%	210 nM	71.5%	180 nM	63.0%	20 nM	71.0%	70 nM	67.5%	20 nM	61.5%	100 nM	CC1CCN1C(=O)c1nn2c(=O)cc(-c3ccc(C4CCCCC4)cc3)[nH]c2c1C(=O)N1CC(CF)C1 (single isomer, unassigned) [Enantiomer A, Example 33, 5-(4-Cyclohexylphenyl)-3-(3-(fluoromethyl)azetidine-1-carbonyl)-2-(2-methylazetidine-1-carbonyl)pyrazolo[1,5-a]pyrimidin-7(4H)-one]
42.0%	500 nM	32.0%	460 nM	59.5%	110 nM	69.5%	100 nM	51.5%	10 nM	62.0%	80 nM	61.5%	10 nM	44.0%	110 nM	C[C@H](CO)c1nn2c(=O)cc(-c3ccc(C4CCCCC4)cc3)[nH]c2c1C(=O)N1CC(CF)C1 (single isomer, unassigned) [Enantiomer A, Example 55]
36.5%	200 nM	27.0%	140 nM	53.5%	100 nM	61.5%	80 nM	57.0%	20 nM	71.0%	80 nM	64.0%	10 nM	45.5%	90 nM	C[C@@H](CO)c1nn2c(=O)cc(-c3ccc(C4CCCCC4)cc3)[nH]c2c1C(=O)N1CC(CF)C1 (single isomer, unassigned) [Enantiomer B, Example 55]
